Measured values from ChEMBL document CHEMBL3994622, “Design and synthesis of new RAF kinase-inhibiting antiproliferative quinoline derivatives. Part 2: Diarylurea derivatives” (Eur J Med Chem, 2017).

Experiments:
Type in all cases: functional
[1] = system: KM12; assay: Growth inhibition of human KM12 cells incubated for 48 hrs by sulforhodamine B assay; conditions: KM12, 48 h
[2] = system: UO-31; assay: Growth inhibition of human UO31 cells incubated for 48 hrs by sulforhodamine B assay; conditions: UO-31, 48 h
[3] = system: SK-MEL-5; assay: Growth inhibition of human SK-MEL-5 cells incubated for 48 hrs by sulforhodamine B assay; conditions: SK-MEL-5, 48 h
[4] = system: SN12C; assay: Growth inhibition of human SN12C cells incubated for 48 hrs by sulforhodamine B assay
[5] = system: PC-3; assay: Growth inhibition of human PC3 cells incubated for 48 hrs by sulforhodamine B assay; conditions: PC-3, 48 h
[6] = system: OVCAR-4; assay: Growth inhibition of human OVCAR4 cells incubated for 48 hrs by sulforhodamine B assay; conditions: OVCAR-4, 48 h
[7] = system: UACC-62; assay: Growth inhibition of human UACC62 cells incubated for 48 hrs by sulforhodamine B assay; conditions: UACC-62, 48 h
[8] = system: HOP-62; assay: Growth inhibition of human HOP62 cells incubated for 48 hrs by sulforhodamine B assay; conditions: HOP-62, 48 h
[9] = system: CCRF-CEM; assay: Growth inhibition of human CCRF-CEM cells incubated for 48 hrs by sulforhodamine B assay
[10] = system: SNB-75; assay: Growth inhibition of human SNB75 cells incubated for 48 hrs by sulforhodamine B assay; conditions: SNB-75, 48 h
[11] = system: HL-60(TB); assay: Growth inhibition of human HL-60(TB) cells incubated for 48 hrs by sulforhodamine B assay; conditions: HL-60, 48 h
[12] = system: HCC 2998; assay: Growth inhibition of human HCC2998 cells incubated for 48 hrs by sulforhodamine B assay; conditions: HCC 2998, 48 h
[13] = system: DU-145; assay: Growth inhibition of human DU145 cells incubated for 48 hrs by sulforhodamine B assay; conditions: DU-145, 48 h
[14] = system: RPMI-8226; assay: Growth inhibition of human RPMI8226 cells incubated for 48 hrs by sulforhodamine B assay; conditions: RPMI-8226, 48 h
[15] = system: HT-29; assay: Growth inhibition of human HT-29 cells incubated for 48 hrs by sulforhodamine B assay; conditions: HT-29, 48 h
[16] = system: NCI-H226; assay: Growth inhibition of human NCI-H226 cells incubated for 48 hrs by sulforhodamine B assay; conditions: NCI-H226, 48 h
[17] = system: T47D; assay: Growth inhibition of human T47D cells incubated for 48 hrs by sulforhodamine B assay
[18] = system: SK-MEL-2; assay: Growth inhibition of human SK-MEL-2 cells incubated for 48 hrs by sulforhodamine B assay; conditions: SK-MEL-2, 48 h
[19] = system: M14; assay: Growth inhibition of human M14 cells incubated for 48 hrs by sulforhodamine B assay; conditions: M14, 48 h
[20] = system: 786-0; assay: Growth inhibition of human 786-0 cells incubated for 48 hrs by sulforhodamine B assay; conditions: 786-0, 48 h
[21] = system: HCT-15; assay: Growth inhibition of human HCT15 cells incubated for 48 hrs by sulforhodamine B assay; conditions: HCT-15, 48 h
[22] = system: SR; assay: Growth inhibition of human SR cells incubated for 48 hrs by sulforhodamine B assay
[23] = system: OVCAR-3; assay: Growth inhibition of human OVCAR3 cells incubated for 48 hrs by sulforhodamine B assay; conditions: OVCAR-3, 48 h
[24] = system: Hs-578T; assay: Growth inhibition of human Hs 578T cells incubated for 48 hrs by sulforhodamine B assay
[25] = system: ACHN; assay: Growth inhibition of human ACHN cells incubated for 48 hrs by sulforhodamine B assay
[26] = system: Malme-3M; assay: Growth inhibition of human MALME-3M cells incubated for 48 hrs by sulforhodamine B assay
[27] = system: BT-549; assay: Growth inhibition of human BT549 cells incubated for 48 hrs by sulforhodamine B assay; conditions: BT-549, 48 h
[28] = system: SNB-19; assay: Growth inhibition of human SNB19 cells incubated for 48 hrs by sulforhodamine B assay; conditions: SNB-19, 48 h
[29] = system: RXF 393; assay: Growth inhibition of human RXF393 cells incubated for 48 hrs by sulforhodamine B assay; conditions: RXF 393, 48 h
[30] = system: A498; assay: Growth inhibition of human A498 cells incubated for 48 hrs by sulforhodamine B assay; conditions: A498, 48 h
[31] = read-out: LC50 (the source's name)

## Cc1nc2cc(O)c(O)cc2cc1Oc1ccc(NC(=O)Nc2ccc(Cl)c(Cl)c2)cc1
[1]
  GI50: 9.64 µM
  TGI: 32 µM
[1]; [31]
  CC50: > 32.5 µM
[2]
  GI50: 6.97 µM
  TGI: 14.9 µM
[2]; [31]
  CC50: 31.9 µM
[3]
  GI50: 5.94 µM
  TGI: 14.2 µM
[3]; [31]
  CC50: > 32.5 µM
[4]
  GI50: 8.97 µM
  TGI: 30.3 µM
[4]; [31]
  CC50: > 32.5 µM
[5]
  GI50: 4.36 µM
  TGI: > 32.5 µM
[5]; [31]
  CC50: > 32.5 µM
[6]
  GI50: 9.73 µM
  TGI: > 32.5 µM
[6]; [31]
  CC50: > 32.5 µM
[7]
  GI50: 5.67 µM
  TGI: 11.2 µM
[7]; [31]
  CC50: 22.1 µM
[8]
  GI50: 8.62 µM
  TGI: > 32.5 µM
[8]; [31]
  CC50: > 32.5 µM
[9]
  GI50: 6.19 µM
  TGI: 21.8 µM
[9]; [31]
  CC50: > 32.5 µM
[10]
  GI50: 7.73 µM
  TGI: 28.9 µM
[10]; [31]
  CC50: > 32.5 µM
[11]
  GI50: 9.02 µM
  TGI: 22.4 µM
[11]; [31]
  CC50: > 32.5 µM
[12]
  GI50: 6.7 µM
  TGI: 14.6 µM
[12]; [31]
  CC50: 32 µM
[13]
  GI50: 7.26 µM
  TGI: 25.2 µM
[13]; [31]
  CC50: > 32.5 µM
[14]
  GI50: 7.62 µM
  LC50 (lethal concentration, 50% cell kill): > 32.5 µM
  TGI: 20.7 µM
[15]
  GI50: 11.9 µM
  TGI: > 32.5 µM
[15]; [31]
  CC50: > 32.5 µM
[16]
  GI50: 11.8 µM
  TGI: > 32.5 µM
[16]; [31]
  CC50: > 32.5 µM
[17]
  GI50: 11.6 µM
  TGI: > 32.5 µM
[17]; [31]
  CC50: > 32.5 µM
[18]
  GI50: 8.83 µM
  TGI: 21.1 µM
[18]; [31]
  CC50: > 32.5 µM
[19]
  GI50: 5.97 µM
  TGI: 13.8 µM
[19]; [31]
  CC50: 32 µM
[20]
  GI50: 7.67 µM
  TGI: 18.6 µM
[20]; [31]
  CC50: > 32.5 µM
[21]
  GI50: 5.47 µM
  LC50 (lethal concentration, 50% net cell kill): > 32.5 µM
  TGI: > 32.5 µM
[22]
  GI50: 1.56 µM
  TGI: 12.3 µM
[22]; [31]
  CC50: > 32.5 µM
[23]
  GI50: 8.52 µM
  TGI: 19.9 µM
[23]; [31]
  CC50: > 32.5 µM
[24]
  GI50: 12.8 µM
  TGI: > 32.5 µM
[24]; [31]
  CC50: > 32.5 µM
[25]
  GI50: 3.37 µM
  TGI: 17.9 µM
[25]; [31]
  CC50: > 32.5 µM
[26]
  GI50: 8.6 µM
  TGI: 26 µM
[26]; [31]
  CC50: > 32.5 µM
[27]
  GI50: 7.5 µM
  TGI: > 32.5 µM
[27]; [31]
  CC50: > 32.5 µM
[28]
  GI50: 10.1 µM
  TGI: > 32.5 µM
[28]; [31]
  CC50: > 32.5 µM
[29]
  GI50: 9.24 µM
  TGI: > 32.5 µM
[29]; [31]
  CC50: > 32.5 µM
[30]
  GI50: > 32.5 µM
  TGI: > 32.5 µM
[30]; [31]
  CC50: > 32.5 µM
